Source: patent publication US4879278A, “Isolation and structural elucidation of the cytostatic linear depsipeptide dolastatin 15” (priority 1989, dated 1989)
In brackets after ≈: the same amount, converted by molar mass. Where two headings read alike, the source gives them in different places. Non-standard residues stand in square brackets, D forms with d. Residues, ends and D or L forms follow the SMILES beside them. *: point of attachment. X3 = COC1=CC(=O)N(C(=O)[C@@H](O*)C(C)C)[C@H]1Cc1ccccc1; NMe2Val = CC(C)[C@@H](C(=O)*)N(C)C; NMeV = CN[C@H](C(=O)O)C(C)C

Experiments:
[1] = test system: P388 lymphocytic leukemia cell line; assay: P388 in vitro cell line growth inhibition; assay type: cell-based, murine
Method: Because of the dolastatin's potency, the sea hare seems to require only vanishingly small quantities (about 1 mg each from 100 kg), making isolation and structural elucidation of these peptides exceptionally challenging. Later another substance was isolated and determined to be a unique linear pentapeptide and was denominated "dolastatin 10". […] The PS System is an excellent predictor of activity against various types of human neoplasms (See: Vendetti et al, Lloydia, 30, 332 et seq (1967) and references cited therein.)

[2] = test system: P388 lymphocytic leukemia cell line; details: PS leukemia; cited from earlier work

Compound: COC1=CC(=O)N(C(=O)[C@@H](OC(=O)[C@@H]2CCCN2C(=O)[C@@H]2CCCN2C(=O)[C@H](C(C)C)N(C)C(=O)[C@@H](NC(=O)[C@H](C(C)C)N(C)C)C(C)C)C(C)C)[C@H]1Cc1ccccc1 [Dolastatin 15] (NMe2Val-V[NMeV]PP-X3)
- ED50 [1]: 0.0024 µg/mL (≈ 0.00287 µM)

Compound: CC[C@H](C)[C@@H]([C@@H](CC(=O)N1CCC[C@H]1[C@H](OC)[C@@H](C)C(=O)N[C@@H](Cc1ccccc1)c1nccs1)OC)N(C)C(=O)[C@@H](NC(=O)[C@H](C(C)C)N(C)C)C(C)C [dolastatin 10]
- ED50 [2]: 46 µg/mL (≈ 58.6 µM)
